One may read the IC50 as the concentration needed to halve the response being measured. As a reminder, the pIC50 is the IC50 on a negative log10 scale, so that one unit is a factor of ten.

The text below walks through data of patent US20260028341A1, “IMIDAZOTRIAZINE DERIVATIVES AS IL-17 MODULATORS” (UCB BIOPHARMA SRL, priority 2022, published 2026).

For the experiment, the target named is T1, IL-17A (Homo sapiens, UniProt Q16552).
T1 sequence (Q16552 24-155): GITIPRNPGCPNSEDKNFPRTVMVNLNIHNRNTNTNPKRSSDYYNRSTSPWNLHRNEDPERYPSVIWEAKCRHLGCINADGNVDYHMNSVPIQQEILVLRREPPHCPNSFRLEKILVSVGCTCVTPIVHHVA
As to the kind of experiment: Inhibition of IL-17A induced IL-6 release from dermal fibroblast cell line (HDF cell line assay). It is filed as cell-based. The following applies: HDF cells stimulated with IL-17A (50 pM) plus TNF-α (25 pM); IL-6 release measured by HTRF. The text has this:
Inhibition of IL-17A Induced IL-6 Release from Dermal Fibroblast Cell Line
The purpose of this assay is to test the neutralising ability to IL-17 proteins, in a human primary cell system. Stimulation of normal human dermal fibroblasts (HDF) with IL-17 alone produces only a very weak signal but in combination with certain other cytokines, such as TNFα, a synergistic effect can be seen in the production of inflammatory cytokines, i.e. IL-6.
HDFs were stimulated with IL-17A (50 pM) in combination with TNF-α (25 pM). The resultant IL-6 response was then measured using a homogenous time-resolved FRET kit from Cisbio. The kit utilises two monoclonal antibodies, one labelled with Eu-Cryptate (Donor) and the second with d2 or XL665 (Acceptor). The intensity of the signal is proportional to the concentration of IL-6 present in the sample (Ratio is calculated by 665/620×104).
The ability of a compound to inhibit IL-17 induced IL-6 release from human dermal fibroblasts is measured in this assay.
HDF cells (Sigma #106-05n) were cultured in complete media (DMEM+10% FCS+2 mM L-glutamine) and maintained in a tissue culture flask using standard techniques. Cells were harvested from the tissue culture flask on the morning of the assay using TrypLE (Invitrogen #12605036). The TrypLE was neutralised using complete medium (45 mL) and the cells were centrifuged at 300×g for 3 minutes. The cells were re-suspended in complete media (5 mL) counted and adjusted to a concentration of 3.125×10^4 cells/mL before being added to the 384 well assay plate (Corning #3701) at 40 μL per well. The cells were left for a minimum of three hours, at 37° C./5% CO2, to adhere to the plate.
Compounds were serially diluted in DMSO before receiving an aqueous dilution into a 384 well dilution plate (Greiner #781281), where […] from the titration plate was transferred to 45 μL of complete media and mixed to give a solution containing 10% DMSO.
Mixtures of TNFα and IL-17 cytokine were prepared in complete media to final concentrations of TNFα 25 pM/IL-17A 50 pM, then 30 μL of the solution was added to a 384 well reagent plate (Greiner #781281).
10 μL from the aqueous dilution plate was transferred to the reagent plate containing 30 μL of the diluted cytokines, to give a 2.5% DMSO solution. The compounds were incubated with the cytokine mixtures for 5 h at 37° C. After the incubation, 10 μL was transferred to the assay plate, to give a 0.5% DMSO solution, then incubated for 18-20 h at 37° C./5% CO2.
From the Cisbio IL-6 FRET kit (Cisbio #62IL6PEB) europium cryptate and Alexa 665 were diluted in reconstitution buffer and mixed 1:1, as per kit insert. To a white low volume 384 well plate (Greiner #784075) were added FRET reagents (10 μL), then supernatant (10 μL) was transferred from the assay plate to Greiner reagent plate. The mixture was incubated at room temperature for 3 h with gentle shaking (<400 rpm) before being read on a Synergy Neo 2 plate reader (Excitation: 330 nm; Emission: […]).
`Cc1nonc1C(=O)N[C@H](c1cn2ncc(C3(N4CC(C(F)(F)F)NC4=O)CC(F)(F)C3)nc2n1)C1CCC(F)(F)CC1` (single isomer, unassigned) [Example 1]: the IC50 was 6.31 nM.
Still for that read-out and setting: for `Cc1nonc1C(=O)N[C@H](c1cn2ncc(C3(N4C[C@H](C(F)(F)F)NC4=O)CC(F)(F)C3)nc2n1)C1CCC(F)(F)CC1` (single isomer, unassigned) [Example 2] the value was 1000 nM; for `Cc1nonc1C(=O)N[C@H](c1cn2ncc(C3(N4C[C@@H](C(F)(F)F)NC4=O)CC3)nc2n1)C1CCC(F)(F)CC1` (single isomer, unassigned) [Example 3], 631 nM.
With `Cc1nonc1C(=O)N[C@H](c1cn2ncc(C3(N4C[C@@H](C(F)(F)F)NC4=O)CCOCC3)nc2n1)C1CCC(F)(F)CC1` (single isomer, unassigned) [Example 4], the half-inhibitory concentration (IC50) is 3.98 nM.
For `Cc1nonc1C(=O)N[C@H](c1cn2ncc(C3(N4C[C@H](C(F)(F)F)NC4=O)CCOCC3)nc2n1)C1CCC(F)(F)CC1` (single isomer, unassigned) [Example 5], the IC50 was 2000 nM.
Regarding `Cc1nonc1C(=O)N[C@H](c1cn2ncc([C@@]3(N4C[C@H](C(F)(F)F)NC4=O)CCOC3)nc2n1)C1CCC(F)(F)CC1` (single isomer, unassigned) [Example 13], the IC50 was 7940 nM.
`Cc1nonc1C(=O)N[C@H](c1cn2ncc(C3(N4C[C@@H](C(F)(F)F)NC4=O)CCN(CC(C)(F)F)CC3)nc2n1)C1CCC(F)(F)CC1` (single isomer, unassigned) [Example 14]: the IC50 was 3.98 nM.
`Cc1nonc1C(=O)N[C@H](c1cn2ncc(C3(N4C[C@H](C(F)(F)F)NC4=O)CCN(CC(C)(F)F)CC3)nc2n1)C1CCC(F)(F)CC1` (single isomer, unassigned) [Example 15]: the IC50 was 316 nM.
With `Cc1nonc1C(=O)N[C@H](c1cn2ncc(C3(N4C[C@@H](C(F)(F)F)NC4=O)CCN(CC(C)(C)F)CC3)nc2n1)C1CCC(F)(F)CC1` (single isomer, unassigned) [Example 16], the IC50 was 3.98 nM.
Still for that read-out and setting: with `Cc1nonc1C(=O)N[C@H](c1cn2ncc(C3(N4C[C@H](C(F)(F)F)NC4=O)CCN(CC(C)(C)F)CC3)nc2n1)C1CCC(F)(F)CC1` (single isomer, unassigned) [Example 17] the figure was 251 nM; with `Cc1nonc1C(=O)N[C@H](c1cn2ncc(C3(N4C[C@@H](C(F)(F)F)NC4=O)CCN(C)CC3)nc2n1)C1CCC(F)(F)CC1` (single isomer, unassigned) [Example 18], 10 nM.
For the compound `Cc1nonc1C(=O)N[C@H](c1cn2ncc(C3(N4C[C@H](C(F)(F)F)NC4=O)CCN(C)CC3)nc2n1)C1CCC(F)(F)CC1` (single isomer, unassigned) [Example 19], the half-inhibitory concentration (IC50) is 200 nM.
With `Cc1nonc1C(=O)N[C@H](c1cn2ncc(C3(N4CC(C(F)(F)F)NC4=O)CCN(C(=O)OC(C)(C)C)CC3)nc2n1)C1CCC(F)(F)CC1` (stereo partly drawn) [Example 6, tert-Butyl 4-(6-{(S)-(4,4-difluorocyclohexyl)[(4-methyl-1,2,5-oxadiazole-3-carbonyl)-amino]methyl}imidazo[1,2-b][1,2,4]triazin-3-yl)-4-[2-oxo-4-(trifluoromethyl)-imidazolidin-1-yl]piperidine-1-carboxylate], the IC50 is 7.94 nM.
Take `Cc1nonc1C(=O)N[C@H](c1cn2ncc(C3(N4CC(C(F)(F)F)NC4=O)CCNCC3)nc2n1)C1CCC(F)(F)CC1` (stereo partly drawn) [Example 7, N—[(S)-(4,4-Difluorocyclohexyl)(3-{4-[2-oxo-4-(trifluoromethyl)imidazolidin-1-yl]-piperidin-4-yl}imidazo[1,2-b][1,2,4]triazin-6-yl)methyl]-4-methyl-1,2,5-oxadiazole-3-carboxamide]: the IC50 was 31.6 nM.
For the compound “N—[(S)-(4,4-Difluorocyclohexyl)(3-{3-[(4R)-2-oxo-4-(trifluoromethyl)imidazolidin-1-yl]-oxetan-3-yl}imidazo[1,2-b][1,2,4]triazin-6-yl)methyl]-4-methyl-1,2,5-oxadiazole-3-carboxamide [Example 9]”, the pIC50 is on record as 5.0.
Consider “N—[(S)-(4,4-Difluorocyclohexyl)(3-{3-[(4S)-2-oxo-4-(trifluoromethyl)imidazolidin-1-yl]-oxetan-3-yl}imidazo[1,2-b][1,2,4]triazin-6-yl)methyl]-4-methyl-1,2,5-oxadiazole-3-carboxamide [Example 8]”, for which the pIC50 turned out to be 7.5.
Take “N—[(S)-(4,4-Difluorocyclohexyl)(3-{(3R)-3-[(4R)-2-oxo-4-(trifluoromethyl)imidazolidin-1-yl]tetrahydrofuran-3-yl}imidazo[1,2-b][1,2,4]triazin-6-yl)methyl]-4-methyl-1,2,5-oxadiazole-3-carboxamide [Example 12]”: the negative logarithm of the IC50 (pIC50) came out at 6.2.
Regarding “N—[(S)-(4,4-Difluorocyclohexyl)(3-{(3R)-3-[(4S)-2-oxo-4-(trifluoromethyl)imidazolidin-1-yl]tetrahydrofuran-3-yl}imidazo[1,2-b][1,2,4]triazin-6-yl)methyl]-4-methyl-1,2,5-oxadiazole-3-carboxamide [Example 10]”, the pIC50 was 7.2.
On to “N—[(S)-(4,4-Difluorocyclohexyl)(3-{(3S)-3-f[(4S)-2-oxo-4-(trifluoromethyl)imidazolidin-1-yl]tetrahydrofuran-3-yl}imidazo[1,2-b][1,2,4]triazin-6-yl)methyl]-4-methyl-1,2,5-oxadiazole-3-carboxamide [Example 11]”, for which the pIC50 was found to be 8.0.
